Test results reported in patent US20140228329A1, “USE OF 25-HYDROXY VITAMIN D3 TO PROMOTE PHOSPHOROUS UTILISATION IN RUMINANTS” (DSM IP ASSETS B.V., priority 2011, published 2014).

Legend:
cattle [1] = experiment: Low Phosphorous diet experiment in cattle: blood plasma phosphorous concentration; type: in vivo; settings: cattle on low Phosphorous roughage diet, 2,000 μg 25-hydroxy-vitamin D3 per head/day vs control diet; measured after 1, 11, 12, 13 and 14 days; effect at least after 10 days (FIG. 1)
Protocol: (§1) In an experimental cattle farm, two groups of animals were selected for the following experiment with a low Phosphorous diet.
(§2) One group received the control diet which was the standard roughage diet without the supplementation of 25-hydroxy-vitamin D3. The other group received the experimental diet which was the standard roughage diet supplemented with 2,000 μg 25-hydroxy-vitamin D3 per head/day
After 1, 11, 12, 13 and 14 days the blood plasma concentration of phosphorous was measured by standard method.

cattle [2] = experiment: Low Phosphorous diet experiment in cattle: phosphorous in diet, faeces and urine (P balance); type: in vivo
Protocol: as §1, §2
Additionally the phosphorous concentration in g/day was measured or/calculated in the diet, faeces and urine.

[3] = low Phosphorous roughage diet, 2,000 μg 25-hydroxy-vitamin D3 per head/day, NS vs control
[4] = low Phosphorous roughage diet, 2,000 μg 25-hydroxy-vitamin D3 per head/day, P < 0.05 vs control

## C=C1CC[C@H](O)C/C1=C/C=C1\CCC[C@]2(C)[C@@H]([C@H](C)CCCC(C)(C)O)CC[C@@H]12 [25OH-D3, 25-hydroxy vitamin D3]
Cattle [1]
  phosphorous concentration in blood plasma: significant increase
Cattle [2]; low Phosphorous diet, after 25-OH D3 supplementation vs control
  P excretion by the animal: significant decrease
Cattle [2]; [3]
  P (g/day) Feed: 26.36 g/day
  P (g/day) Urine: 1.12 g/day
Cattle [2]; [4]
  P (g/day) Faeces: 17.21 g/day
  P (g/day) Retained: 8.03 g/day
